Laboratory results from patent US7691855B2, “Phenyl-[4-(3-phenyl-1h-pyrazol-4-yl)-pyrimidin-2-yl)-amine derivatives” (Novartis AG, priority 2002, dated 2010).

SMILES | melting point [°C]
COc1cc(Nc2nccc(-c3c[nH]nc3-c3cccc(C)c3C)n2)cc(OC)c1OC [Example 51, {4-[3-(2,3-Dimethyl-phenyl)-1H-pyrazol-4-yl]-pyrimidin-2-yl}-(3,4,5-trimethoxy-phenyl)-amine] | 249
COc1cc(Nc2nccc(-c3c[nH]nc3-c3ccccc3Cl)n2)cc(OC)c1OC [Example 53, {4-[3-(2-Chloro-phenyl)-1H-pyrazol-4-yl]-pyrimidin-2-yl}-(3,4,5-trimethoxy-phenyl)-amine] | 257.5
COc1ccc(Nc2nccc(-c3cnn(C)c3-c3ccc(Cl)cc3Cl)n2)cc1OC [Example 56, {4-[5-(2,4-Dichloro-phenyl)-1-methyl-1H-pyrazol-4-yl]-pyrimidin-2-yl}-(3,4-dimethoxy-phenyl)-amine] | 157
COc1ccc(Nc2nccc(-c3cn(C)nc3-c3ccc(Cl)cc3Cl)n2)cc1OC [Example 57, {4-[3-(2,4Dichloro-phenyl)-1-methyl-1H-pyrazol-4-yl]-pyrimidin-2-yl}-(3,4-dimethoxy-phenyl)-amine] | 180
Cc1ccc(-c2n[nH]cc2-c2ccnc(Nc3ccc(C(=O)O)cc3)n2)cc1 [Example 58, 4-[4-(3-p-Tolyl-1H-pyrazol-4-yl)-pyrimidin-2-ylamino]-benzoic acid] | 341
COc1cc(Nc2nccc(-c3c[nH]nc3-c3ccc(Cl)cc3)n2)cc(OC)c1OC [Example 67, {4-[3-(4-Chloro-phenyl)-1H-pyrazol-4-yl]-pyrimidin-2-yl}-(3,4,5-trimethoxy-phenyl)-amine] | 271
COc1ccc(Nc2nccc(-c3c[nH]nc3-c3ccc(Cl)cc3)n2)cc1OC [Example 68, {4-[3-(4-Chloro-phenyl)-1H-pyrazol-4yl]-pyrimidin-2-yl}-(3,4-dimethoxy-phenyl)-amine] | 261
COc1cccc(Nc2nccc(-c3c[nH]nc3-c3ccc(Cl)cc3)n2)c1 [Example 69, {4-[3-(4-Chloro-phenyl)-1H-pyrazol-4-yl]-pyrimidin-2-yl}-(3-methoxy-phenyl)-amine] | 261
COc1cc(Nc2nccc(-c3cnn(CCN(C)C)c3-c3ccc(Cl)cc3)n2)cc(OC)c1OC [Example 71, {4-[5-(4-Chloro-phenyl)-1-(2-dimethylamino-ethyl)-1H-pyrazol-4-yl]-pyrimidin-2-yl}-(3,4,5-trimethoxy-phenyl)-amine] | 153
COc1ccc(Nc2nccc(-c3cnn(CCN(C)C)c3-c3ccc(Cl)cc3)n2)cc1OC [Example 73, {4-[5-(4-Chloro-phenyl)-1-(2-dimethylamino-ethyl)-1H-pyrazol-4-yl]-pyrimidin-2-yl}-(3,4-dimethoxy-phenyl)-amine] | 157
COc1cccc(Nc2nccc(-c3cnn(CCN(C)C)c3-c3ccc(Cl)cc3)n2)c1 [Example 75, {-4-[5-(4Chloro-phenyl)-1-(2-dimethylamino-ethyl)-1H-pyrazol-4-yl]-pyrimidin-2-yl}-(3-methoxy-phenyl)-amine] | 118

The next lines start with the values.

melting point [°C] | SMILES
305 | Cc1cccc(-c2n[nH]cc2-c2ccnc(Nc3ccc(N4CCN(C)CC4)cc3)n2)c1C [Example 50, {4-[3-(2,3-Dimethyl-phenyl)-1H-pyrazol-4-yl]-pyrimidin-2-yl}-[4-(4-methyl-piperazin-1-yl)phenyl]-amine]
310 | CN1CCN(c2ccc(Nc3nccc(-c4c[nH]nc4-c4ccccc4Cl)n3)cc2)CC1 [Example 52, {4-[3-(2-Chloro-phenyl)-1H-pyrazol-4-yl]-pyrimidin-2-yl}-[4-(4-methyl-piperazin-1-yl)-phenyl]-amine]
184 | Cc1ccc(-c2c(-c3ccnc(Nc4ccc(N5CCN(C)CC5)cc4)n3)cnn2CCN(C)C)cc1 [Example 54, {4-[1-(2-Dimethylamino-ethyl)-5-p-tolyl-1H-pyrazol-4-yl]-pyrimidin-2-yl}-[4-(4-methyl-piperazin-1-yl)-phenyl]-amine]
174 | Cc1ccc(-c2nn(CCN(C)C)cc2-c2ccnc(Nc3ccc(N4CCN(C)CC4)cc3)n2)cc1 [Example 55, {4-[1-(2-Dimethylamino-ethyl)-3-p-tolyl-1H-pyrazol-4-yl]-pyrimidin-2-yl}-[4-(4-methyl-piperazin-1-yl)-phenyl]-amine]
264 | Cc1ccc(-c2n[nH]cc2-c2ccnc(Nc3ccc(C(=O)N4CCN(C)CC4)cc3)n2)cc1 [Example 59, (4Methyl-piperazin-1-yl)-{4-[4-(3-p-tolyl-1H-pyrazol-4-yl)-pyrimidin-2-ylamino]-phenyl}-methanone]
261 | Cc1ccc(-c2c(-c3ccnc(Nc4ccc(N5CCN(C)CC5)cc4)n3)cnn2C)cc1 [Example 63, [4-(4-Methyl-piperazin-1-yl)-phenyl]-[4-(1-methyl-5-p-tolyl-1H-pyrazol-4-yl)-pyrimidin-2-yl]-amine]
203 | Cc1ccc(-c2nn(C)cc2-c2ccnc(Nc3ccc(N4CCN(C)CC4)cc3)n2)cc1 [Example 64, [4-(4-Methyl-piperazin-1-yl)-phenyl]-[4-(1-methyl-3-p-tolyl-1H-pyrazol-4-yl)-pyrimidin-2-yl]-amine]
192 | Cc1ccc(-c2c(-c3ccnc(Nc4ccc(CN5CCN(C)CC5)cc4)n3)cnn2C)cc1 [Example 65, [4-(4-Methyl-piperazin-1-ylmethyl)-phenyl]-[4(1-methyl-5-p-tolyl-1H-pyrazol-4-yl)-pyrimidin-2-yl]-amine]
151 | Cc1ccc(-c2nn(C)cc2-c2ccnc(Nc3ccc(CN4CCN(C)CC4)cc3)n2)cc1 [Example 66, [4-(4-Methyl-piperazin-1-ylmethyl)-phenyl]-[4-(1-methyl-3-p-tolyl-1H-pyrazol-4-yl)-pyrimidin-2-yl]-amine]
150 | COc1cc(Nc2nccc(-c3cn(CCN(C)C)nc3-c3ccc(Cl)cc3)n2)cc(OC)c1OC [Example 70, {4-[3-(4-Chloro-phenyl)-1-(2-dimethylamino-ethyl)-1H-pyrazol-4-yl]-pyrimidin-2-yl}-(3,4,5-trimethoxy-phenyl)-amine]
159 | CN(C)CCn1ncc(-c2ccnc(Nc3ccc(CN4CCN(C)CC4)cc3)n2)c1-c1ccc(Cl)cc1 [Example 77, {4-[5-(4-Chloro-phenyl)-1-(2-dimethylamino-ethyl)-1H-pyrazol-4yl]-pyrimidin-2-yl}-[4-(4-methyl-piperazin-1-ylmethyl)-phenyl]-amine]
166 | CN1CCN(Cc2ccc(Nc3nccc(-c4cn(C)nc4-c4ccc(Cl)cc4)n3)cc2)CC1 [Example 78, {4-[3-(4-Chloro-phenyl)-1-methyl-1H-pyrazol-4yl]-pyrimidin-2-yl}-[4-(4-methyl-piperazin-1-ylmethyl)-phenyl]-amine]
186 | CN1CCN(Cc2ccc(Nc3nccc(-c4cnn(C)c4-c4ccc(Cl)cc4)n3)cc2)CC1 [Example 79, {4-[5-(4Chloro-phenyl)-1-methyl-1H-pyrazol-4-yl]-pyrimidin-2-yl}-[4-(4-methyl-piperazin-1-ylmethyl)-phenyl]-amine]
164 | CN1CCC(n2cc(-c3ccnc(Nc4ccc(CN5CCN(C)CC5)cc4)n3)c(-c3ccc(Cl)cc3)n2)CC1 [Example 80, {4-[3-(4-Chloro-phenyl)-1-(1-methyl-piperidin-4-yl)-1H-pyrazol-4yl]-pyrimidin-2-yl}-[4-(4-methyl-piperazin-1-yl-methyl)-phenyl]-amine]
